The values below are quoted from earlier work in patent US6329349A, “Methods for reducing ischemic injury of the heart via the sequential administration of monophosphoryl lipid A and adenosine receptor agents” (priority 2000, dated 2001).

The data set relates to Rat Brain A1 and A2 -Receptors. The conditions noted are these: radioligand binding, Table I; cited from earlier work.
As to `COc1ccc(/C=C/c2nc3c(c(=O)n(C)c(=O)n3C)n2C)cc1` [29b], the “A1 /A2 ratio” value is given as 44.

Regarding `Cn1c(=O)c2c(nc(/C=C/c3cccc(N(C(=O)OC(C)(C)C)C(=O)OC(C)(C)C)c3)n2C)n(C)c1=O` [compound 26], the “A1 /A2 ratio” value is 15.

On to `CCCn1c(=O)c2c(nc(/C=C/c3cc(OC)cc(OC)c3)n2C)n(CCC)c1=O` [53b], for which the “A1 /A2 ratio” value is 110.

Take `COc1cccc(/C=C/c2nc3c(c(=O)n(C)c(=O)n3C)n2C)c1` [19b]: the “A1 /A2 ratio” value is recorded as 64.

Regarding `Cn1c(=O)c2c(nc(/C=C/c3cc(F)cc(F)c3)n2C)n(C)c1=O` [34b], the “A1 /A2 ratio” value is on record as 230.

For the compound `COc1cc(/C=C/c2nc3c(c(=O)n(C)c(=O)n3C)n2C)cc(OC)c1OC/C=C/CN` [compound 40], the “A1 /A2 ratio” value is on record as 28.

With `COc1cc(/C=C/c2nc3c(c(=O)n(C)c(=O)n3C)n2C)cc(OC)c1OCCCCN` [compound 38], the “A1 /A2 ratio” value was 36.

On to `Cn1c(=O)c2c(nc(/C=C/c3cccc(F)c3)n2C)n(C)c1=O` [27b], for which the “A1 /A2 ratio” value is 190.

As for `Cn1c(=O)c2c(nc(/C=C/c3cccc(C(F)(F)F)c3)n2C)n(C)c1=O` [20b], the “A1 /A2 ratio” value is 25.

As for `Cn1c(=O)c2c(nc(/C=C/c3cccc(NC(=O)OC(C)(C)C)c3)n2C)n(C)c1=O` [compound 25], the “A1 /A2 ratio” value is given as 30.

`COc1cc(/C=C/c2nc3c([nH]2)c(=O)n(C)c(=O)n3C)cc(OC)c1` [33a]: the “A1 /A2 ratio” value is reported as 25.

Consider `COc1cc(/C=C/c2nc3c(c(=O)n(C)c(=O)n3C)n2C)cc(OC)c1OCCCCNC(=O)OC(C)(C)C` [compound 39], for which the “A1 /A2 ratio” value was 42.

As to `COc1cc(/C=C/c2nc3c(c(=O)n(C)c(=O)n3C)n2C)cc(OC)c1O` [compound 35], the “A1 /A2 ratio” value was 19.

With `COc1ccc(/C=C/c2nc3c(c(=O)n(C)c(=O)n3C)n2C)c(OC)c1OC` [43b], the “A1 /A2 ratio” value is listed as 34.

As for `COc1cc(/C=C/c2nc3c(c(=O)n(C)c(=O)n3C)n2C)cc(OC)c1OC/C=C/CNC(=O)OC(C)(C)C` [compound 42], the “A1 /A2 ratio” value is > 40.

Consider `COc1ccccc1/C=C/c1nc2c(c(=O)n(C)c(=O)n2C)n1C` [17b], for which the “A1 /A2 ratio” value is given as 18.

As to `Cn1c(=O)c2c(nc(/C=C/c3cccc([N+](=O)[O-])c3)n2C)n(C)c1=O` [21b], the “A1 /A2 ratio” value was 11.

With `CC(=O)Nc1cccc(/C=C/c2nc3c(c(=O)n(C)c(=O)n3C)n2C)c1` [compound 23], the “A1 /A2 ratio” value was 240.

Consider `Cn1c(=O)c2c(nc(/C=C/c3cccc(NC(=O)CCC(=O)O)c3)n2C)n(C)c1=O` [compound 24], for which the “A1 /A2 ratio” value is given as 250.

In the case of `Cn1c(=O)c2c(nc(/C=C/c3cccc(N)c3)n2C)n(C)c1=O` [22b], the “A1 /A2 ratio” value is reported as 30.

Turning to `COc1cc(/C=C/c2nc3c(c(=O)n(C)c(=O)n3C)n2C)cc(OC)c1OC` [44b], the “A1 /A2 ratio” value was 70.

Turning to `COc1ccc(/C=C/c2nc3c(c(=O)n(C)c(=O)n3C)n2C)cc1OC` [32b], the “A1 /A2 ratio” value is recorded as 70.

Consider `COc1cc(/C=C/c2nc3c(c(=O)n(C)c(=O)n3C)n2C)cc(OC)c1OC/C=C/CNC(C)=O` [compound 41], for which the “A1 /A2 ratio” value is > 50.

As to `COc1cc(/C=C/c2nc3c(c(=O)n(C)c(=O)n3C)n2C)cc(OC)c1OC(C)=O` [compound 36], the “A1 /A2 ratio” value was 93.

On to `COc1cc(/C=C/c2nc3c(c(=O)n(C)c(=O)n3C)n2C)cc(OC)c1` [33b], for which the “A1 /A2 ratio” value is given as > 200.

On to `C=CCn1c(=O)c2c(nc(/C=C/c3cc(OC)c(OC)c(OC)c3)n2C)n(CC=C)c1=O` [compound 46], for which the “A1 /A2 ratio” value is given as 13.
